Measurements as given in the NIST ThermoML archive (doi:10.1016/j.fluid.2015.08.029).
Numbers after ± are expanded uncertainties.

Test: xn = mol fraction of the nth substance listed
Conditions: Fluid (supercritical or subcritical phases), Buoyancy - hydrostatic balance with magnetic suspension - one sinker, x2 = 0.95

Structure (SMILES): C [methane] + O=C=O
- mass density (305.16 K, 9767.1 kPa): 617.141 ± 1.5 kg/m3
- mass density (305.16 K, 9967.5 kPa): 629.726 ± 1.3 kg/m3
- mass density (305.17 K, 9370.3 kPa): 584.841 ± 1.9 kg/m3
- mass density (306.1 K, 7971 kPa): 291.729 ± 1.4 kg/m3
- mass density (306.14 K, 8569.3 kPa): 407.211 ± 3.1 kg/m3
- mass density (306.15 K, 8769.4 kPa): 456.137 ± 3.2 kg/m3
- mass density (306.15 K, 9367.9 kPa): 559.009 ± 2.1 kg/m3
- mass density (306.15 K, 9567.4 kPa): 580.099 ± 1.8 kg/m3
- mass density (306.15 K, 9767.6 kPa): 597.343 ± 1.6 kg/m3
- mass density (306.16 K, 9168.1 kPa): 532.249 ± 2.5 kg/m3
- mass density (306.17 K, 8170.1 kPa): 321.108 ± 1.9 kg/m3
- mass density (306.17 K, 8969 kPa): 498.232 ± 2.9 kg/m3
- mass density (306.17 K, 9967.5 kPa): 611.559 ± 1.5 kg/m3
- mass density (306.18 K, 8370.6 kPa): 359.348 ± 2.5 kg/m3
- mass density (307.11 K, 7970.8 kPa): 279.021 ± 1.2 kg/m3
- mass density (307.15 K, 8769.2 kPa): 417.545 ± 2.9 kg/m3
- mass density (307.15 K, 9369.4 kPa): 530.475 ± 2.3 kg/m3
- mass density (307.15 K, 9968.3 kPa): 592.558 ± 1.6 kg/m3
- mass density (307.16 K, 8569.4 kPa): 373.594 ± 2.5 kg/m3
- mass density (307.16 K, 9769.9 kPa): 575.499 ± 1.8 kg/m3
- mass density (307.17 K, 8370.1 kPa): 335.111 ± 1.9 kg/m3
- mass density (307.17 K, 9567.7 kPa): 554.846 ± 2 kg/m3
- mass density (307.18 K, 8170.2 kPa): 303.687 ± 1.5 kg/m3
- mass density (307.18 K, 8969.6 kPa): 460.414 ± 2.9 kg/m3
- mass density (307.19 K, 9168.1 kPa): 498.151 ± 2.7 kg/m3
- mass density (308.14 K, 7971.8 kPa): 268.365 ± 1 kg/m3
- mass density (308.15 K, 8969.6 kPa): 425.843 ± 2.7 kg/m3
- mass density (308.16 K, 8773.5 kPa): 385.91 ± 2.4 kg/m3
- mass density (308.16 K, 9568.1 kPa): 527.899 ± 2.2 kg/m3
- mass density (308.16 K, 9772 kPa): 552.011 ± 1.9 kg/m3
- mass density (308.16 K, 9967.3 kPa): 570.979 ± 1.7 kg/m3
- mass density (308.17 K, 8171.2 kPa): 290.106 ± 1.2 kg/m3
- mass density (308.17 K, 8372.6 kPa): 316.707 ± 1.5 kg/m3
- mass density (308.17 K, 9169 kPa): 464.65 ± 2.7 kg/m3
- mass density (308.17 K, 9368.5 kPa): 499.11 ± 2.4 kg/m3
- mass density (308.18 K, 8570.3 kPa): 347.84 ± 2 kg/m3
- mass density (309.13 K, 7972 kPa): 259.723 ± 0.88 kg/m3
- mass density (309.15 K, 8969.7 kPa): 395.876 ± 2.3 kg/m3
- mass density (309.15 K, 9967.3 kPa): 548.766 ± 1.8 kg/m3
- mass density (309.16 K, 9568.6 kPa): 499.83 ± 2.2 kg/m3
- mass density (309.16 K, 9768.9 kPa): 526.36 ± 2 kg/m3
- mass density (309.17 K, 8171 kPa): 279.024 ± 1 kg/m3
- mass density (309.17 K, 8570.8 kPa): 328.632 ± 1.6 kg/m3
- mass density (309.17 K, 8772.2 kPa): 360.359 ± 2 kg/m3
- mass density (309.17 K, 9170.1 kPa): 432.906 ± 2.5 kg/m3
- mass density (309.17 K, 9369 kPa): 468.272 ± 2.4 kg/m3
- mass density (309.18 K, 8371.4 kPa): 301.81 ± 1.3 kg/m3
- mass density (310.13 K, 7971.6 kPa): 252.206 ± 0.8 kg/m3
- mass density (310.15 K, 9168.8 kPa): 404.887 ± 2.2 kg/m3
- mass density (310.15 K, 9768.4 kPa): 500.279 ± 2.1 kg/m3
- mass density (310.16 K, 9368.7 kPa): 438.984 ± 2.3 kg/m3
- mass density (310.17 K, 8169.9 kPa): 269.525 ± 0.91 kg/m3
- mass density (310.17 K, 8371.3 kPa): 289.994 ± 1.1 kg/m3
- mass density (310.17 K, 8570.5 kPa): 313.293 ± 1.3 kg/m3
- mass density (310.17 K, 8969.4 kPa): 370.784 ± 1.9 kg/m3
- mass density (310.17 K, 9568.2 kPa): 470.935 ± 2.2 kg/m3
- mass density (310.17 K, 9969.4 kPa): 524.504 ± 1.9 kg/m3
- mass density (310.18 K, 8771.3 kPa): 340.177 ± 1.6 kg/m3
- mass density (311.13 K, 7972.7 kPa): 245.539 ± 0.72 kg/m3
- mass density (311.15 K, 8969.4 kPa): 351.047 ± 1.6 kg/m3
- mass density (311.16 K, 9169.2 kPa): 380.674 ± 1.9 kg/m3
- mass density (311.17 K, 8170.7 kPa): 261.395 ± 0.82 kg/m3
- mass density (311.17 K, 8372.1 kPa): 279.845 ± 0.96 kg/m3
- mass density (311.17 K, 8571.3 kPa): 300.517 ± 1.1 kg/m3
- mass density (311.17 K, 9768.1 kPa): 473.276 ± 2.1 kg/m3
- mass density (311.17 K, 9967.8 kPa): 499.737 ± 2 kg/m3
- mass density (311.18 K, 9568.6 kPa): 443.32 ± 2.1 kg/m3
- mass density (311.19 K, 8770.5 kPa): 323.691 ± 1.4 kg/m3
- mass density (311.19 K, 9369 kPa): 411.617 ± 2.1 kg/m3
- mass density (312.13 K, 7972.4 kPa): 239.656 ± 0.67 kg/m3
- mass density (312.17 K, 8771.1 kPa): 310.807 ± 1.2 kg/m3
- mass density (312.17 K, 9568.6 kPa): 418.783 ± 1.9 kg/m3
- mass density (312.17 K, 9768.9 kPa): 448.071 ± 2 kg/m3
- mass density (312.17 K, 9967.7 kPa): 475.106 ± 2 kg/m3
- mass density (312.18 K, 8571.5 kPa): 289.726 ± 0.99 kg/m3
- mass density (312.18 K, 9169.8 kPa): 360.525 ± 1.6 kg/m3
- mass density (312.19 K, 8172.7 kPa): 254.332 ± 0.74 kg/m3
- mass density (312.19 K, 8372.2 kPa): 270.995 ± 0.85 kg/m3
- mass density (312.19 K, 8970.5 kPa): 334.208 ± 1.4 kg/m3
- mass density (312.19 K, 9369.6 kPa): 388.871 ± 1.8 kg/m3
- mass density (313.14 K, 7973.3 kPa): 234.195 ± 0.64 kg/m3
- mass density (313.17 K, 8571.8 kPa): 280.559 ± 0.88 kg/m3
- mass density (313.17 K, 8771.6 kPa): 299.532 ± 1 kg/m3
- mass density (313.17 K, 8970.6 kPa): 320.608 ± 1.2 kg/m3
- mass density (313.17 K, 9170.2 kPa): 344.172 ± 1.4 kg/m3
- mass density (313.17 K, 9369.7 kPa): 369.68 ± 1.6 kg/m3
- mass density (313.17 K, 9768.4 kPa): 424.626 ± 1.9 kg/m3
- mass density (313.18 K, 8171.5 kPa): 247.96 ± 0.68 kg/m3
- mass density (313.18 K, 8372.5 kPa): 263.421 ± 0.77 kg/m3
- mass density (313.18 K, 9569.1 kPa): 396.668 ± 1.8 kg/m3
